According to patent US5563125A, “5'-deoxy-5'-(substituted)alkylthioribose compounds and their pharmaceutical compositions” (priority 1992, dated 1996):

Target: T1, T. b. brucei MTA phosphorylase (Trypanosoma brucei, UniProt Q57XS4)
T1 construct: MTA or analogs as substrates
Experiment: T. b. brucei MTA phosphorylase substrate assay
Assay type: biochemical
Conditions: relative to MTA
Procedure: ^a MTA phosphorylase was assayed according to Ghoda et al., using 200
μM MTA (saturating) or analogs as substrates. Specific activities of
the dialyzed enzyme preparations were with 50 mM PO4, 104.97 n
moles/mg protein/h; without PO4, 28.27 n moles/mg protein/h. Results
are expressed as percent activity compared to as substrate with and
without PO4, respectively.

T1 sequence (Q57XS4 entry or part of it): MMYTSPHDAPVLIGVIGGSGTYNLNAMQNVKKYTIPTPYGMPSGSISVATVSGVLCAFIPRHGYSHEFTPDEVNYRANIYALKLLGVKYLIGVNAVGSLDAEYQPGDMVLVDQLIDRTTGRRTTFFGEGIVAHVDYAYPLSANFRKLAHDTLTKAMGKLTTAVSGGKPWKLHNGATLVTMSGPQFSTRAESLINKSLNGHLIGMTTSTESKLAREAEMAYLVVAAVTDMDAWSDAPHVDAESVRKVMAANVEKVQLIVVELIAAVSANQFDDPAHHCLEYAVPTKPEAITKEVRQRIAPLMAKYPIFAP

SMILES: Nc1ncnc2c1ncn2[C@@H]1O[C@H](CSCCF)[C@@H](O)[C@H]1O [MFETA, 5'-deoxy-5'-(monofluoroethylthio)adenosine]
- Percent Control Activity (+50 mM PO4, 200 μM substrate): 75.3%
- Percent Control Activity (No PO4, 200 μM substrate): 109.1%
